Test results taken from patent US20030191279A1, “Urea derivatives useful as anticancer agents” (priority 1999, published 2003).

| melting point | SMILES |
| --- | --- |
| 130 °C | COc1ccccc1C[C@@H]1CCc2ccccc2[C@H]1N(Cc1ccccc1)C(=O)CNC(=O)Nc1cccc(C(=O)O)c1 (relative stereo) [Example 18, trans-3-[3-({Benzyl-[2-(2-methoxy-benzyl)-1,2,3,4-tetrahydro-naphthalen-1-yl]-carbamoyl}-methyl)-ureido]-benzoic acid] |
| 117 °C | COc1ccccc1CN(C(=O)CNC(=O)Nc1cccc(C(=O)O)c1)[C@@H]1c2ccccc2CC[C@H]1Cc1ccccc1 (relative stereo) [Example 11, trans-3-(3-{[(2-Benzyl-1,2,3,4-tetrahydro-naphthalen-1-yl)-(2-methoxy-benzyl)-carbamoyl]-methyl}-ureido)-benzoic acid] |
| 160 to 162 °C | O=C(NCC(=O)N(Cc1ccccc1)[C@@H]1CCCC[C@H]1Cc1ccccc1)Nc1cccc(C(=O)O)c1 (relative stereo) [Example 14, trans-3-(3-{[Benzyl-(2-benzyl-cyclohexyl)-carbamoyl]-methyl)-ureido)-benzoic Acid] |
| > 250 °C | O=C(NCC(=O)N(Cc1ccccc1)[C@@H]1c2ccccc2CC[C@H]1Cc1ccccc1)Nc1cccc(C(=O)O)c1 (relative stereo) [Example 1, trans-3-(3-{[Benzyl-(2-benzyl-1,2,3,4-tetrahydro-naphthalen-1-yl)-carbamoyl]-methyl}-ureido)-benzoic acid] |
| 119 °C (dec.) | O=C(NCC(=O)N(Cc1ccccc1)[C@@H]1c2ccccc2CC[C@H]1Cc1ccccc1)c1cccc(-c2nnn[nH]2)c1 (relative stereo) [Example 4, trans-N-{[Benzyl-(2-benzyl-1,2,3,4-tetrahydro-naphthalen-1-yl)-carbamoyl]-methyl}-3-(1H-tetrazol-5-yl)-benzamide] |
| 130 °C | CCN(C(=O)CNC(=O)Nc1cccc(C(=O)O)c1)[C@@H]1c2ccccc2CC[C@H]1Cc1ccccc1 (relative stereo) [Example 16, trans-3-(3-{[(2-Benzyl-1,2,3,4-tetrahydro-naphthalen-1yl)-ethyl-carbamoyl]-methyl}-ureido)-benzoic acid] |
| 155 °C (dec.) | O=C(NCC(=O)N(Cc1ccccc1)[C@@H]1c2ccccc2CC[C@H]1Cc1ccccc1)Nc1cccc(C(=O)Nc2nnn[nH]2)c1 (relative stereo) [Example 3, trans-3-(3-{[Benzyl-(2-benzyl-1,2,3,4-tetrahydro-naphthalen-1-yl)-carbamoyl]-methyl}-ureido)-N-(1H-tetrazol-5-yl)-benzamide] |
| 194 to 195 °C | O=C(NCC(=O)N(Cc1nccs1)[C@@H]1c2ccccc2CC[C@H]1Cc1ccccc1)Nc1cccc(C(=O)O)c1 (relative stereo) [Example 17, trans-3-(3-{[(2-Benzyl-1,2,3,4-tetrahydro-naphthalen-1-yl)-thiazol-2-ylmethyl-carbamoyl]-methyl}-ureido)-benzoic acid] |
| 120 °C | O=C(O)c1cc(C(=O)NCC(=O)N(Cc2ccccc2)[C@@H]2CCCC[C@H]2Cc2ccccc2)ncn1 (relative stereo) [Example 20, trans-6-({[Benzyl-(2-benzyl-cyclohexyl)-carbamoyl]-methyl}-carbamoyl)-pyrimidine-4-carboxylic acid] |
| 196 to 198 °C | O=C(NCC(=O)N(Cc1cccs1)[C@@H]1c2ccccc2CC[C@H]1Cc1ccccc1)Nc1cccc(C(=O)O)c1 (relative stereo) [Example 13, trans-3-(3-{[(2-Benzyl-1,2,3,4-tetrahydro-naphthalen-1-yl)-thiophen-2-ylmethyl-carbamoyl]-methyl}-ureido)-benzoic acid] |
